Where “and” joins values, the source holds several entries; their conditions need not be identical. Equal values may be shown once. Calls of active or inactive are those of the source.
Key:
[1] = biological target: Intestinal-type alkaline phosphatase (Mus musculus, UniProt P24822); assay: PubChem AID 488785; type: functional
[2] = biological target: T1, Alkaline phosphatase, tissue-nonspecific isozyme (Homo sapiens, UniProt P05186); assay: TNAP enzyme inhibition by screening hits, dose response, selectivity assay for mouse IAP inhibitor project, biochemical, human TNAP, uHTS hits (AID 488906); type: functional
T1 sequence (P05186 whole entry): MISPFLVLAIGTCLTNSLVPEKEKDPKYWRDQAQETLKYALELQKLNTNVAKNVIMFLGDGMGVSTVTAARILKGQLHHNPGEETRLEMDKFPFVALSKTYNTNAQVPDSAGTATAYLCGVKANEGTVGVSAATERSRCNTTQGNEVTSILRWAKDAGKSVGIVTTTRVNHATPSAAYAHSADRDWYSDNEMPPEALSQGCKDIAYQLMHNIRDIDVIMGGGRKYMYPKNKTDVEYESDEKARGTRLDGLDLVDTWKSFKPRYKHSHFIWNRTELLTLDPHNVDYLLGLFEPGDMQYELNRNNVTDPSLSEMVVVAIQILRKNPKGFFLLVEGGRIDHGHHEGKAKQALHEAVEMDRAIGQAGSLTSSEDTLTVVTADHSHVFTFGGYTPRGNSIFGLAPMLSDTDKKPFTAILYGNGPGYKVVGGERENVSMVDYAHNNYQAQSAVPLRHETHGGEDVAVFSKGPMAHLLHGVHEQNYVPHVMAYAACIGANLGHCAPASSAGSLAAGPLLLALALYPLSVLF

[3] = biological target: Intestinal-type alkaline phosphatase (Homo sapiens, UniProt P09923); assay: inhibition of human intestinal alkaline phosphatase – biochemical, dose response (AID 488876); type: functional
[4] = NIH-3T3 fibroblast cytotoxicity, dose response, cytotoxicity control, cell-based, fluorescence, Alamar Blue, secondary assay (AID 2327); type: functional;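 note: NIH-3T3 mouse fibroblasts cultured with fluconazole at 8 µg/mL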
[5] = biological target: Sphingosine 1-phosphate receptor 1 (Homo sapiens, UniProt P21453); assay: Fluorescence-based counterscreen assay for S1P4 agonists: Cell-based dose response high throughput screening assay to identify agonists of the Sphingosine 1-Phosphate Receptor 1 (S1P1). [Related pubchem assays (depositor defined):AID1509, AID1523, AID1801, AID463107, AID463118, AID463119, AID463122, AID463123, AID463129, AID463225, AID504400, AID504460]; type: functional
Sequence of Sphingosine 1-phosphate receptor 1 (P21453 whole entry): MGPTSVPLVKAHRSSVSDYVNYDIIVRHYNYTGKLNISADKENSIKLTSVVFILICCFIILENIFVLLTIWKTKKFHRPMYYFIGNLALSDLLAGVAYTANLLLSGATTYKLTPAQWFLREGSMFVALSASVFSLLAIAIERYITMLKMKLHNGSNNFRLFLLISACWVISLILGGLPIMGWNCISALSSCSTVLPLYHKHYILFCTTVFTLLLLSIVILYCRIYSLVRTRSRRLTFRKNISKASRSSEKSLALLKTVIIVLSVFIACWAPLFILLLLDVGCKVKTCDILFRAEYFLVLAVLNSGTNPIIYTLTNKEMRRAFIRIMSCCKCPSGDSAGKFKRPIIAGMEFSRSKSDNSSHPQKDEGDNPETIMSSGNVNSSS

[6] = fluconazole-exposed Candida albicans growth modulators – fluorescence, retest, confirmation (AID 2467); type: functional, cell-based
[7] = biological target: Sphingosine 1-phosphate receptor 4 (Homo sapiens, UniProt O95977); assay: Fluorescence dose response cell-based high throughput screening assay for agonists of the Sphingosine 1-Phosphate Receptor 4 (S1P4). [Related pubchem assays: 1509 (Primary screen.), 1523 (Confirmation screen in triplicates.)]; type: functional
Sequence of Sphingosine 1-phosphate receptor 4 (O95977 whole entry): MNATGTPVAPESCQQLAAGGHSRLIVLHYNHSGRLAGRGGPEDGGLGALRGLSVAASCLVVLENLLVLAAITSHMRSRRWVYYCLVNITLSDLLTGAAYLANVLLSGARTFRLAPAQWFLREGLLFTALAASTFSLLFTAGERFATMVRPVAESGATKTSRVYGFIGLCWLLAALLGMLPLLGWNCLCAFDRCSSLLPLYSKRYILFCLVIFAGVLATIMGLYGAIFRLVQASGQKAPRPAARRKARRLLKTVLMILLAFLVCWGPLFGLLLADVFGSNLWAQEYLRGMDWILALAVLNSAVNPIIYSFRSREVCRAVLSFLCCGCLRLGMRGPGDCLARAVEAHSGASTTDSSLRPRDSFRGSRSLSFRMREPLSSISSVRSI

[8] = biological target: Sphingosine 1-phosphate receptor 2 (Homo sapiens, UniProt O95136); assay: Dose Response Cell Based Assay for Agonists of the S1P2 Receptor. [Related pubchem assays: 729, 736, 843 ]; type: functional
[9] = biological target: Peroxisome proliferator-activated receptor gamma/Nuclear receptor coactivator 1 (Homo sapiens, UniProt P37231); assay: (§1) TR-FRET dose response biochemical High Throughput Screening assay for agonists of the steroid receptor coactivator 1 (SRC-1) recruitment by the peroxisome proliferator-activated receptor gamma (PPAR gamma): non-selective agonists. [Related pubchem assays (depositor defined):AID1300, AID1808, AID504735, AID631]; type: protein assay
[10] = biological target: Peroxisome proliferator-activated receptor gamma/Nuclear receptor coactivator 3 (Homo sapiens, UniProt P37231); assay: as §1, with “3 (SRC-3)” for “1 (SRC-1)”, “assays: 1301 (Confirmation screen.), 1048 (Primary screen.)]” for “assays (depositor defined):AID1300, AID1808, AID504735, AID631]”; type: functional
[11] = biological target: Peroxisome proliferator-activated receptor gamma/Nuclear receptor coactivator 2 (Homo sapiens, UniProt P37231); assay: TR-FRET dose response biochemical High Throughput Screening assay for agonists of the steroid receptor coactivator 2 (SRC-2) recruitment by the peroxisome proliferator-activated receptor gamma (PPAR gamma): non-selective agonists. [Related pubchem assays: 1297, 1032 ]; type: functional
Sequence of Peroxisome proliferator-activated receptor gamma/Nuclear receptor coactivator 2 (P37231 whole entry): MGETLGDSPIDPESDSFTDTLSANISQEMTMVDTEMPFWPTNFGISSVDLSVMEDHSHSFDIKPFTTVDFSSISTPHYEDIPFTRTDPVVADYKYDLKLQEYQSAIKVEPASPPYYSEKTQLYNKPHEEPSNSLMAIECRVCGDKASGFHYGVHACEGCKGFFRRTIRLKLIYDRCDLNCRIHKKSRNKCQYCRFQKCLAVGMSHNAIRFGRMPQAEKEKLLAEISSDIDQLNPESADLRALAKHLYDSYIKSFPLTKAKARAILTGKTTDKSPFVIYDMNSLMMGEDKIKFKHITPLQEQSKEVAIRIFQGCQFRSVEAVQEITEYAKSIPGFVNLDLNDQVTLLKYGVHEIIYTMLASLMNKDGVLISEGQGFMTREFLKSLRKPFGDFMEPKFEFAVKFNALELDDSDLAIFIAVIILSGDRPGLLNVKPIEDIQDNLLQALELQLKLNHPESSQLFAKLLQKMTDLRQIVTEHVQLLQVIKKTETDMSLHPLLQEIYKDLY
Sequence of Peroxisome proliferator-activated receptor gamma/Nuclear receptor coactivator 2 (Q15596 whole entry, further chain): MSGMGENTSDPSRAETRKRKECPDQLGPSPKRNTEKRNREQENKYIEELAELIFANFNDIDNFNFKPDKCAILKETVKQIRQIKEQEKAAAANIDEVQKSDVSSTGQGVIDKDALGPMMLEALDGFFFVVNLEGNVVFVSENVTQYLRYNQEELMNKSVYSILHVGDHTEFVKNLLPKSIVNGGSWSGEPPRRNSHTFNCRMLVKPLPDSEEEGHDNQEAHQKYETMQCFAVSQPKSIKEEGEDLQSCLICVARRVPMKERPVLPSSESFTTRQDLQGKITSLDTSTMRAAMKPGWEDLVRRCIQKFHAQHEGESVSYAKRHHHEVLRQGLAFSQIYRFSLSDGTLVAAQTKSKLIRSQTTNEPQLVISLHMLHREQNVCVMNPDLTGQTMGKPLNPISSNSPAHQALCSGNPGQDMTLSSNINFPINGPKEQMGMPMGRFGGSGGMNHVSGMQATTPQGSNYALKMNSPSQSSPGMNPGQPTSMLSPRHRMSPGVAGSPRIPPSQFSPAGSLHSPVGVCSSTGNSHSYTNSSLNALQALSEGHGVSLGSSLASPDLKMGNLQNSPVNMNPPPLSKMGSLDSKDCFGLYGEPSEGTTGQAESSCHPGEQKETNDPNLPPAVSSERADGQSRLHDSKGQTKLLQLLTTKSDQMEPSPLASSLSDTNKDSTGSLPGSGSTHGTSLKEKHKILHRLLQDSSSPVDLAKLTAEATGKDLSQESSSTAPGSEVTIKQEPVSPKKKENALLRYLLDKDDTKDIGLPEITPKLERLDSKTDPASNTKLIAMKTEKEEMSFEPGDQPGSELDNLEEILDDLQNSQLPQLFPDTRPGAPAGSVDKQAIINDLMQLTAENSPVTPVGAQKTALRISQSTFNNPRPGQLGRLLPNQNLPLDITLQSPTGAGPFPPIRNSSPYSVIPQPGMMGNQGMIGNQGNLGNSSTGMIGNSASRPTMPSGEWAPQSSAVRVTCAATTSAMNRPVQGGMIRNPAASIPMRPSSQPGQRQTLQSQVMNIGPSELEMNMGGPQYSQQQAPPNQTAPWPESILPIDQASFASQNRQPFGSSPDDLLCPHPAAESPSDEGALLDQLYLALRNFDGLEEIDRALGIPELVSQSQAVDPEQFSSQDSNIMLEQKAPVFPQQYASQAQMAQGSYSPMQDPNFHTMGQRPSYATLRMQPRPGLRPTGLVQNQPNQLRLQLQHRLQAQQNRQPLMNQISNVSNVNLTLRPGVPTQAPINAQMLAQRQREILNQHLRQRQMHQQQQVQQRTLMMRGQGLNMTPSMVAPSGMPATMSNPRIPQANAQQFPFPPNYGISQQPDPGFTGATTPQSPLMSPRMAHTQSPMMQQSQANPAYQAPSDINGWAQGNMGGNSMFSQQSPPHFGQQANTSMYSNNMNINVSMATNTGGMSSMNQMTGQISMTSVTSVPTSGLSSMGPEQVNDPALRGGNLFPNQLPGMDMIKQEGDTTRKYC

[12] = biological target: Cytochrome P450 3A4 (Homo sapiens, UniProt P08684);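 note: CYP3A4 tested as one member of a cytochrome P450 panel screen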
[13] = biological target: T2, E3 ubiquitin-protein ligase XIAP (Homo sapiens, UniProt P98170); assay: SAR analysis of Antagonists of XIAP-Bir3 domain of IAP-family anti-apoptotic proteins. [Related pubchem assays (depositor defined):AID1018, AID1449, AID1513, AID1514, AID1638]
T2 sequence (P98170 whole entry, the tested form may be a part): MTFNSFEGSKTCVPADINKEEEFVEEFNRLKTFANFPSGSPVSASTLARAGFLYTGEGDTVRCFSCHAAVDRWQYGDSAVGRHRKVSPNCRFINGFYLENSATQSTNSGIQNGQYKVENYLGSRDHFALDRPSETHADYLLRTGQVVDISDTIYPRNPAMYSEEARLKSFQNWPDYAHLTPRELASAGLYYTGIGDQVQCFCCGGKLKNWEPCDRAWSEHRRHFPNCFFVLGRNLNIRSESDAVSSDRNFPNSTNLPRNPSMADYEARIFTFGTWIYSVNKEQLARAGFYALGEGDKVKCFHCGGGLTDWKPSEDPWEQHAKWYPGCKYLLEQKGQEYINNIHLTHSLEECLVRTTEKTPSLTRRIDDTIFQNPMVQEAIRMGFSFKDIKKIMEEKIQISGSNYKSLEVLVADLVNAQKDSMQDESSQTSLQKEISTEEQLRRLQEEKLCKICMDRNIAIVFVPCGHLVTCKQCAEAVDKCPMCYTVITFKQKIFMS

[14] = biological target: T2, E3 ubiquitin-protein ligase XIAP; assay: SAR analysis of Antagonists of IAP-family anti-apoptotic proteins. [Related pubchem assays (depositor defined):AID1018, AID1449, AID1513, AID1514, AID1638]
[15] = biological target: Bcl-2-related protein A1 (Mus musculus, UniProt Q07440); type: functional;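 note: confirmatory dose–response counterscreen on Bfl-1, used to check hits from a UBC13 polyubiquitin inhibitor campaign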
Sequence of Bcl-2-related protein A1 (Q07440 whole entry): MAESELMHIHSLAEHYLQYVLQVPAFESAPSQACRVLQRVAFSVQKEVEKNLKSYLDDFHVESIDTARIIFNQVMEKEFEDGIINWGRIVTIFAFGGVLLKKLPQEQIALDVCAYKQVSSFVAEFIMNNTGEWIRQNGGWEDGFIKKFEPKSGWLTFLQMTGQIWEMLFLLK

[16] = biological target: T3, Ubiquitin-conjugating enzyme E2 N (Homo sapiens, UniProt P61088); type: functional
T3 sequence (P61088 whole entry): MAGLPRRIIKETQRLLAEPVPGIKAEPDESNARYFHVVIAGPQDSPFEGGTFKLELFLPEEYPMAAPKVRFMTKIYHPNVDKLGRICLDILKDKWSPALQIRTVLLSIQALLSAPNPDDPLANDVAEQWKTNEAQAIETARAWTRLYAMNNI

[17] = biological target: T4, Short transient receptor potential channel 4 (Mus musculus, UniProt Q9QUQ5); assay: calcium entry via TRPC4 opening agents – cell-based, HEK293 TRPC4/mu-opioid, Fluo-4 calcium, dose response (AID 434937); type: functional
T4 sequence (Q9QUQ5 whole entry): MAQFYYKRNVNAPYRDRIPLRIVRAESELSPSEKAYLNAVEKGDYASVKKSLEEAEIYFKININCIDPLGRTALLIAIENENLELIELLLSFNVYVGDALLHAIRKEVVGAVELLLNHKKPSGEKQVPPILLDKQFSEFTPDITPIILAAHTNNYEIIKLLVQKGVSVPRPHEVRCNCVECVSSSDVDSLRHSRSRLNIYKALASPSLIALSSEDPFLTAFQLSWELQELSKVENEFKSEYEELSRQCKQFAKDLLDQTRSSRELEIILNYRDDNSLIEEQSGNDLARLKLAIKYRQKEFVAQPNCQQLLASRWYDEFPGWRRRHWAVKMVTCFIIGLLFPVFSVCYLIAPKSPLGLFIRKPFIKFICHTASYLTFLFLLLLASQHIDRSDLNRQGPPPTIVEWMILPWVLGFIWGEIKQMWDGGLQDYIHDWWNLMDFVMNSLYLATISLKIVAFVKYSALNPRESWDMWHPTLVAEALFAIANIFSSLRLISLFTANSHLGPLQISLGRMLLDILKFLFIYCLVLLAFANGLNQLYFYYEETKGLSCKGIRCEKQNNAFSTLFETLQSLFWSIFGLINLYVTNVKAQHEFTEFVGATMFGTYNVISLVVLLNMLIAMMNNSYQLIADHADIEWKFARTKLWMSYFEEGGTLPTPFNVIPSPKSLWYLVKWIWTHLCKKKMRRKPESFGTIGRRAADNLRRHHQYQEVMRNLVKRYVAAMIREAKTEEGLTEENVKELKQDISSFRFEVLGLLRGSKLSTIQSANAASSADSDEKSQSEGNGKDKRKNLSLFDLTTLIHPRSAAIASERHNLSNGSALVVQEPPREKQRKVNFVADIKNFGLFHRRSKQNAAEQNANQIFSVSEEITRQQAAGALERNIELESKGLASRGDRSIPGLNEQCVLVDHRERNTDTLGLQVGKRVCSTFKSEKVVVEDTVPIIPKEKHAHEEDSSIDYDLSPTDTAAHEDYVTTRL

[18] = biological target: T3, Ubiquitin-conjugating enzyme E2 N; type: functional; remark: listed apart in the source
[19] = biological target: Nonstructural protein 1 (Influenza A virus, UniProt Q194T2); type: functional, Influenza A virus (A/California/07/2009(H1N1))
[20] = biological target: Type-1 angiotensin II receptor (Homo sapiens, UniProt P30556); assay: agonist activity at AGTR1 – cell-based, uHTS hits, selectivity assay for APJ receptor agonist project, dose response (AID 488865); type: functional;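 note: beta-arrestin recruitment to AT1 measured by enzyme fragment complementation luminescence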
Sequence of Type-1 angiotensin II receptor (P30556 whole entry, the tested form may be a part): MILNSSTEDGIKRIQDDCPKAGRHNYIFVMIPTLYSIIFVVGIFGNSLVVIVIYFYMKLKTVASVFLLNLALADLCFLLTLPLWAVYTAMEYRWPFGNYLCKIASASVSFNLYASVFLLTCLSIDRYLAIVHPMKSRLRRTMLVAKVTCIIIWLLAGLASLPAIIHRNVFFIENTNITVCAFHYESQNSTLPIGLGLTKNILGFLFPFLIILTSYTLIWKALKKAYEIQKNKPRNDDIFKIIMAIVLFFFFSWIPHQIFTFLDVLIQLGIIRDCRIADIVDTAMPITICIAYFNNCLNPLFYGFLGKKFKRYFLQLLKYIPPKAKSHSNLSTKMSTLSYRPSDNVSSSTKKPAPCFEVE

[21] = biological target: Delta-type opioid receptor (Homo sapiens, UniProt P41143); assay: Counterscreen for agonists of heterodimerization of the mu 1 (OPRM1) and delta 1 (OPRD1) opioid receptors: Luminescence-based cell-based high throughput dose response assay to identify agonists of OPRD1 homodimerization. [Related pubchem assays (depositor defined):AID504326, AID504355, AID504692, AID504904, AID504905]; type: functional
[22] = biological target: Mu-type opioid receptor (Homo sapiens, UniProt P35372); assay: Counterscreen for agonists of heterodimerization of the mu 1 (OPRM1) and delta 1 (OPRD1) opioid receptors: Luminescence-based cell-based high throughput dose response assay to identify agonists of OPRM1 homodimerization.; type: functional;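 note: U2OS cells expressing OPRM1 and beta-arrestin as split beta-galactosidase partners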
[23] = biological target: 5-hydroxytryptamine receptor 5A (Homo sapiens, UniProt P47898); assay: Counterscreen for agonists of OPRM1-OPRD1 heterodimerization: luminescence-based cell-based high throughput dose response assay to identify agonists of 5-hydroxytryptamine (serotonin) 5A receptor (HTR5A). [Related pubchem assays (depositor defined):AID504326, AID504355, AID504692, AID504904, AID504905]; type: functional
[24] = test system: INS1; assay: INS-1E survival protection against cytokine death – cell-based, luminescence, retest, dose response (AID 449756); type: functional; details: Rattus norvegicus;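 note: cell death triggered by IL-1 beta plus TNF-alpha plus IFN-gamma mixture; protective hits raise ATP signal compared with cytokine alone wells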
[25] = biological target: Tumor necrosis factor (Homo sapiens, UniProt P01375); assay: analog potency on TNFa NF-kB signaling – cell-based, revised, SAR follow-up (AID 2337); type: functional
Sequence of Tumor necrosis factor (P01375 whole entry, the tested form may be a part): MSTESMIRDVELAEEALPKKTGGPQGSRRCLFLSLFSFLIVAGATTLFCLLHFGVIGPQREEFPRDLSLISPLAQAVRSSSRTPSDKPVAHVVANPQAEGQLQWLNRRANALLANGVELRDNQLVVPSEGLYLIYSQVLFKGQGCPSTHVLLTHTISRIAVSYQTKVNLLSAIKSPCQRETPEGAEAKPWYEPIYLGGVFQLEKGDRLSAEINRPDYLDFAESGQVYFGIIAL

[26] = biological target: Nucleotide-binding oligomerization domain-containing protein 1 (Homo sapiens, UniProt Q9Y239); assay: blockers of NOD1 pathway activity – revised, SAR follow-up (AID 2333); type: functional
Sequence of Nucleotide-binding oligomerization domain-containing protein 1 (Q9Y239 whole entry, the tested form may be a part): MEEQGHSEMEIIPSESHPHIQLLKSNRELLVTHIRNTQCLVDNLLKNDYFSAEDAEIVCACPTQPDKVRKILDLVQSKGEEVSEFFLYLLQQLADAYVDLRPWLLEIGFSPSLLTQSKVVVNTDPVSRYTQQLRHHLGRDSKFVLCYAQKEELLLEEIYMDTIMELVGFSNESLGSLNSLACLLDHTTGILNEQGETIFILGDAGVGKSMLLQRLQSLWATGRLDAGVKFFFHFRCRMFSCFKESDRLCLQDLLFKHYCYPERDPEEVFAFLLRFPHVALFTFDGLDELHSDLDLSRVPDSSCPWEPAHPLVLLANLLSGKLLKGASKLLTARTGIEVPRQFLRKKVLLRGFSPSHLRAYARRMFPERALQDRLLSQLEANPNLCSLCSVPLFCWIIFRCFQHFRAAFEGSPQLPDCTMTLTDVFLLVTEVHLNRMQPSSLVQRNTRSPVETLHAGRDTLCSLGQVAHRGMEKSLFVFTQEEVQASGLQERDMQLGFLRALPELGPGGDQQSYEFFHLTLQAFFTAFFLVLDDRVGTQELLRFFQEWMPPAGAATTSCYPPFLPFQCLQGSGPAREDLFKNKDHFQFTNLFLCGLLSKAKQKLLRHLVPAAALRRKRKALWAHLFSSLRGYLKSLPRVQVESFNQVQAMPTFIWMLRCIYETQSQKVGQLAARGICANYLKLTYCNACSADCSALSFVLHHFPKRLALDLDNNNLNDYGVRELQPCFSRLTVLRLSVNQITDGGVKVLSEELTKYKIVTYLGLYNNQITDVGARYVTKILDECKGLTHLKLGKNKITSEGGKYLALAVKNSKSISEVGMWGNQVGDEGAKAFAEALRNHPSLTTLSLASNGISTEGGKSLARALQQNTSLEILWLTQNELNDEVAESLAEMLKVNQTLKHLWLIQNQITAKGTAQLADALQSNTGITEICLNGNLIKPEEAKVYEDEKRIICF

[27] = test system: HEK293; assay: cells; details: Homo sapiens;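 note: cells exposed to compound for 14 hours overnight before viability readout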

For `COC(=O)c1ccc(NS(=O)(=O)c2ccc3[nH]c(=O)oc3c2)cc1`, the IC50 [1] was 2.6 µM (active), the IC50 [2] was > 100 µM (inactive) and the IC50 [3] was > 100 µM (inactive).

In the case of `Cc1ccccc1-n1c(=O)c(C#N)cc2c(=O)n3ccccc3nc21`, the EC50 [4] is reported as > 160 µM (inactive), the EC50 [5] is reported as 7.88 µM (active) and the EC50 [6] is reported as > 38 µM (not active). The EC50 [7] was 2.58 µM (active) and the EC50 [8] was 7.45 µM (active).

In the case of `CCOC(=O)CSc1cc(=O)n(C)c2cc(Cl)ccc12`, the EC50 [9] is reported as > 79.4 µM (inactive), the EC50 [10] is reported as > 79.4 µM (not active) and the EC50 [11] is reported as > 79.4 µM (not active). The AC50 [12] was 22.4 µM (inconclusive).

With `CC[C@H](NC(=O)[C@H](C)NC)C(=O)N1CCC[C@H]1C(=O)NC1CCCc2ccccc21` (some centres not stated) the IC50 [13] was 530 nM (active) and 980 nM (active) and the IC50 [14] was 9.7 µM (active) and 13.7 µM (active).

For `Cc1ccc2nc(N(CCCN(C)C)C(=O)c3ccc(S(=O)(=O)N4CCc5ccccc5C4)cc3)sc2c1`, the IC50 [15] was > 20 µM (inactive), the IC50 [16] was 11 µM (active) and the EC50 [17] was 3.35 µM (active). The IC50 [18] was 7.23 µM (active), the IC50 [19] was > 50 µM (active) and the EC50 [20] was 57.8 µM (inactive). For the same molecule, the EC50 [21] was > 92.5 µM (inactive), the EC50 [22] was 10.2 µM (inactive) and the EC50 [23] was > 92.5 µM (inactive). The AC50 [24] was 6.05 µM (active).

In the case of `COC(=O)CC1=NN(c2nc3ccccc3s2)C(=O)/C1=C(/C)Nc1ccc(OC)cc1`, the IC50 [25] is reported as < 39.1 nM (active) and 4.12 µM (active), the IC50 [26] is reported as 260 nM (active) and 2.38 µM (active) and the IC50 [27] is reported as > 20 µM (inactive).

From ChEMBL document CHEMBL1201862, “PubChem BioAssay data set” (2004)
